Test results taken from patent publication US20130287873A1, “PHARMACEUTICAL COMPOSITION AND METHOD FOR PREPARING A MEDICATION FOR PROMOTING WOUND HEALING” (INDUSTRIAL TECHNOLOGY RESEARCH INSTITUTE, priority 2012, published 2013).

System: human umbilical vein endothelial cells
Test: Proliferation of human umbilical vein endothelial cells by MTT assay
Type: cell-based
Details: Table 4, 48 hours
Procedure: A growth factor, VEGF, or notoginsenoside R1, etc. were used as control groups to screen a plant extract for promoting proliferation of vein endothelial cells and estimating activity of the plant extract. The experimental method is described as follows. Human umbilical vein endothelial cells were inoculated in a 96 well plate coated with gelatin with a density of 5×10^3 cells/well, and cultured with M199 complete medium in a 37° C. incubator with 5% CO2 overnight. The next day, the medium in the 96 well plate was changed to a medium containing a test plant extract with a specific concentration and a fresh 5% serum without ECGS, and then the culture plate was incubated. After 48 hours, activity of cells in the culture plate were analyzed by MTT assay and quantitated to obtain the information of the-functional specice of plant, the best part of the plant and the best extraction method for the plant for promoting the proliferation of human umbilical vein endothelial cells.
The extract of whole plants of Sambucus formosana Nakai (Herb 1) and the extract of roots of Isatis indigotica Fort. (Herb 2) were diluted 10-fold from 100 μg/mL which was an effective concentration from the primary screening to 0.1 μg/mL to determine the effective range and dose-response of the herbal extracts. The results of the proliferation assay for cells treated with different single-plant extracts are shown in FIG. 1A and Table 4, the results of the activity assay for cells treated with a combination of plant extracts are shown in FIG. 1B and Table 5, and the results of the proliferation assay for cells treated with extracts of specific parts of the plant are shown in FIG. 1C and Table 6. The two kinds of herbs with a concentration of 100 μg/mL have significant effects for promoting growth of vein endothelial cells, and are capable of achieving a promoting effect equivalent to that of VEGF.

| Compound | Cell growth rate (%) (mean ± standard deviation) (0.005 μM) | Cell growth rate (%) (mean ± standard deviation) (0.05 μM) | Cell growth rate (%) (mean ± standard deviation) (0.5 μM) | Cell growth rate (%) (mean ± standard deviation) (5 μM) | Cell growth rate (%) (mean ± standard deviation) (0.05 μg/mL) | Cell growth rate (%) (mean ± standard deviation) (0.5 μg/mL) | Cell growth rate (%) (mean ± standard deviation) (5 μg/mL) | Cell growth rate (%) (mean ± standard deviation) (50 μg/mL) |
| --- | --- | --- | --- | --- | --- | --- | --- | --- |
| C=CCSSCC=C [Diallyl disulfide (DADS), Diallyl disulfide] | 107 ± 6% | 110 ± 2% | 101 ± 9% | 108 ± 4% |  |  |  |  |
| C=CCSCC=C [Diallyl sulfide (DAS), Diallyl sulfide] | 113 ± 12% | 123 ± 11% | 108 ± 2% | 148 ± 1% |  |  |  |  |
| CC(C)=CCC[C@](C)(O[C@@H]1O[C@H](CO)[C@@H](O)[C@H](O)[C@H]1O)[C@H]1CC[C@]2(C)[C@@H]1[C@H](O)C[C@@H]1[C@@]3(C)CC[C@H](O)C(C)(C)[C@@H]3[C@@H](O[C@@H]3O[C@H](CO)[C@@H](O)[C@H](O)[C@H]3O[C@@H]3OC[C@@H](O)[C@H](O)[C@H]3O)C[C@]12C [Notoginsenoside R1] |  |  |  |  | 118 ± 5% | 95 ± 9% | 107 ± 18% | 91 ± 4% |
